The results in this text go back to patent publication US20200297621A1, “Topical Compositions for Neuropathic Pain” (GOOD PHARMACEUTICAL DEVELOPMENT COMPANY, LLC, priority 2016, published 2020).

The series is described as follows: Stability testing of the topical gabapentin/ketamine composition. It counts as physicochemical. Also noted: Assay: unit not given beside the values. The following applies: for Assay (avg): avg of the two determinations; for Assay: single determinations.

“And” between values parts separate entries of the source, which are not always exact repeats. Equal entries are not always repeated.

With `NCC1(CC(=O)O)CCCCC1` [Gabapentin, 1-(aminomethyl)cyclohexane acetic acid], the “Assay (avg)” value reads like this: (2 wk, 25/60) 106.6; (2 wk, 40/75) 105.8; (t = 0) 111.3. The Assay reads like this: (2 wk, 25/60, acetic acid) 105.4 and 107.8; (2 wk, 40/75, acetic acid) 106.1 and 105.5; (t = 0, acetic acid) 111.9 and 110.7.
In the case of `CNC1(c2ccccc2Cl)CCCCC1=O.Cl` (racemic) [Ketamine HCl, (±) 2-(o-chlorophenyl)-2-(methylamino)-cyclohexanone], the “Assay (avg)” value is 105.8 (2 wk, 25/60); 105.2 (2 wk, 40/75); 106.3 (t = 0). Also, the Assay (2 wk, 25/60) was 105.9 and 105.7; the Assay (2 wk, 40/75) came out at 105.2; the Assay (t = 0) is 108.8 and 103.9.
With `COC(=O)c1ccc(O)cc1` [Methylparaben], the “Assay (avg)” value reads like this: (2 wk, 25/60) 106.1; (2 wk, 40/75) 108.1; (t = 0) 112.0. Also, the Assay was 108.2 and 104.1 (2 wk, 25/60); 109.6 and 106.7 (2 wk, 40/75); 111.1 and 112.9 (t = 0).
